Laboratory results reported in patent US7811688B2 (Enersol, Inc. N.A., LP, priority 2002, dated 2010).
Where a name gives a salt, the structure may show the parent alone. Read-outs that look alike come from different tables or passages of the source.

What was measured:
[1] = system: human nose; conditions: cited from earlier work; for Olfactory Power (pOl): in air, pOl=−log [odorant] as volumetric fraction; for Olfactory Power (p. ol): Table 4
[2] = @ 25° C.; cited from earlier work
[3] = Odorant vapor pressure and odorant-hydrogen phase equilibrium (Raoult's Law)
Method: To quantitatively validate the concentration of an odorant in the gas phase at high pressure, first order phase equilibrium equations may be used.
It is also assumed that the odorant is saturated. This means that at the constant pressure when odorant is added, the amount of odorant in the vapor phase remains constant. The equation used to find the fraction of the vapor phase taken solely by the odorant is Raoult's Law: xAPA^sat=yAP
Where, xA is the odorant's fraction of the liquid phase, yA is the odorant's fraction of the vapor phase, PA^sat is the vapor pressure of the saturated odorant, and P is the total pressure within the system.
With these values, the concentration of odorant may be found at ambient conditions for the storage conditions of 6,000 psi. To calculate the pressure needed to produce a certain saturated concentration of odorant in the vapor phase: […]

[4] = system: average weight person; conditions: cited from earlier work
[5] = system: human nose; test: Standard human olfactory power / odor threshold; type: in vivo; conditions: for Odorant Threshold: minimum detection concentration
Excerpt: Another important property of an odorant is its odor threshold. A suitable odorant should be detectable by the human nose at very low concentrations. […] To ensure simultaneous outflow in case of a leak, both components should be in the same phase and well blended. Some odor threshold values may be found in the Handbook of Hazardous Chemical Properties. In addition, the American Industrial Hygiene Association (AIHA) publishes a book of odor threshold values (Odor Thresholds for Chemicals with Established Occupational Health Standards).
Certain functional groups, such as the mercaptans, have high potency odors. According to published standardized human olfactory thresholds, mercaptans are among the strongest smelling compounds known. The stench of mercaptans is a key reason why these compounds were chosen for natural gas odorization. The following is a list of functional groups that may be used to highlight key factors for olfactory thresholds in humans. Standard olfactory power refers to the minimum concentration at which a particular compound is detectable by the average person. The mathematical definition is given as the negative log of odorant concentration expressed in volumetric fraction: pOl=−log [odorant]. Based on this definition an olfactory power of “0/6/9” corresponds to “odorlessness/1 ppm/1 ppb” threshold levels, respectively.

In the case of `CCN` [ethylamine, ethyl amine], the “Olfactory Power (pOl)” value [1] is given as 6.49.

In the case of `CN(C)C` [trimethyl amine], the “Odorant Vapor Pressure PA^SAT” value [2] is given as 31.0 psi and the “Saturated Odorant Concentration yA” value ([3]; @ 6000 psi, 25° C.) is given as 5172 ppm.

In the case of `CCCO` [Odorant 1-propanol, 1-propanol], the “Olfactory Power (pOl)” value [1] is given as 5.62.

In the case of `CCSCC` [diethylsulfide], the “Olfactory Power (pOl)” value [1] is given as 8.41.

In the case of `[Se]` [selenium], the “ingested quantity at which selenosis occurs” value [4] is listed as 5 mg/day.

For `CC` [ethane], the “Olfactory Power (pOl)” value [1] is given as 2.00.

In the case of `COC=O` [methyl formate], the “Olfactory Power (pOl)” value [1] is listed as 4.03.

For `CCNCC` [diethylamine], the “Olfactory Power (pOl)” value [1] is given as 6.73.

In the case of `CC(C)=O` [acetone], the “Olfactory Power (pOl)” value [1] is listed as 4.84.

In the case of `COC(C)=O` [methyl acetate], the “Olfactory Power (pOl)” value [1] is given as 5.21.

In the case of `CC(C)(C)S` [t-butyl mercaptan], the “Olfactory Power (pOl)” value [1] is listed as 9.48, the “Saturated Odorant Concentration yA” value ([3]; @ 6000 psi, 25° C.) is listed as 583 ppm and the “maximum concentration in the vapor/gas phase” value ([3]; at 6000 psi) is listed as “approximately 580 ppm”.

For `CC[Se]CC` [diethylselenide, diethyl selenide], the “Olfactory Power (pOl)” value [1] is given as 9.13.

For `CC[SeH]` [ethyl selenol], the “Olfactory Power (pOl)” value [1] is listed as 10.74, the “times higher detectability as compared to ethyl mercaptan” value ([5]; FIG. 3) is listed as 67 times and the “Odorant Threshold” value ([5]; Table 4) is listed as 0.000018 ppm. The detectability ([5]; based on its olfactory power) was 1.8E-5 ppm, the “Odorant Vapor Pressure PA^SAT” value ([3]; @ 25° C., estimated value based on known vapor pressures of structurally similar compounds) was about 5 psi and the “Saturated Odorant Concentration yA” value ([3]; @ 6000 psi, 25° C.) was about 833 ppm. The “‘B’ Saturated Odorant Loading [6000 psi H2]” value (shortened to “‘B’ Saturated Odorant Loading”) ([3]; PA^sat/P × 10^6 at 6000 psi) was 833 ppm.

For `CCCl` [ethylchloride], the “Olfactory Power (pOl)” value [1] is given as 5.39, the “Odorant Threshold” value ([5]; Table 4) is given as 4.074 ppm and the “‘B’ Saturated Odorant Loading” value ([3]; PA^sat/P × 10^6 at 6000 psi) is given as 3256 ppm.

In the case of `CCC` [propane], the “Olfactory Power (pOl)” value [1] is given as 2.57.

In the case of `C[Se]C` [dimethyl selenide], the “Odorant Vapor Pressure PA^SAT” value [2] is listed as 4.6 psi and the “Saturated Odorant Concentration yA” value ([3]; @ 6000 psi, 25° C.) is listed as 773 ppm.

In the case of `CS` [methyl mercaptan], the “Olfactory Power (pOl)” value [1] is given as 8.98.

For `CNC` [dimethylamine, dimethyl amine], the “Olfactory Power (pOl)” value [1] is given as 7.09, the “Odorant Vapor Pressure PA^SAT” value [2] is given as 29.4 psi and the “Odorant Threshold” value ([5]; Table 4) is given as 0.08128 ppm. For the same molecule, the “Saturated Odorant Concentration yA” value [3] was 4892 ppm and the “‘B’ Saturated Odorant Loading” value [3] was 4892 ppm.

In the case of `CSC` [dimethylsulfide], the “Olfactory Power (pOl)” value [1] is listed as 8.65.

In the case of `CCS` [ethyl mercaptan], the “Olfactory Power (p. ol)” value [1] is given as 8.97, the “Olfactory Power (pOl)” value [1] is given as 8.97 and the “Odorant Vapor Pressure PA^SAT” value [2] is given as 10.2 psi. For the same molecule, the “times higher detectability as compared to ethanol” value ([5]; FIG. 3) was 30,000 times, the “Odorant Threshold” value ([5]; Table 3) was 0.00107 ppm and the “Odorant Threshold” value ([5]; Table 4) was 0.001072 ppm. The “Saturated Odorant Concentration yA” value ([3]; @ 6000 psi, 25° C.) was 1705 ppm and the “‘B’ Saturated Odorant Loading” value ([3]; PA^sat/P × 10^6 at 6000 psi) was 1705 ppm.

In the case of `CCO` [ethanol], the “Olfactory Power (pOl)” value [1] is given as 4.54, the “Odorant Threshold” value ([5]; Table 4) is given as 28.840 ppm and the “‘B’ Saturated Odorant Loading” value ([3]; PA^sat/P × 10^6 at 6000 psi) is given as 190 ppm. For the same molecule, the “concentration in the vapor phase” value ([3]; at 6000 psi) was at most 190 ppm.

In the case of `CCCC` [butane], the “Olfactory Power (pOl)” value [1] is given as 3.69.

In the case of `CN` [methylamine, methyl amine], the “Olfactory Power (pOl)” value [1] is given as 7.73, the “Odorant Threshold” value ([5]; Table 4) is given as 0.01862 ppm and the “‘B’ Saturated Odorant Loading” value ([3]; PA^sat/P × 10^6 at 6000 psi) is given as 8543 ppm.

In the case of `CC=O` [acetaldehyde], the “Olfactory Power (pOl)” value [1] is listed as 6.73.

For `CC(C)CS` [isobutyl mercaptan], the “Olfactory Power (pOl)” value [1] is listed as 8.95.

In the case of `CO` [methanol], the “Olfactory Power (pOl)” value [1] is given as 3.85.

In the case of `CCCN` [propylamine, propyl amine], the “Olfactory Power (pOl)” value [1] is given as 7.96, the “Odorant Vapor Pressure PA^SAT” value [2] is given as 6.0 psi and the “Odorant Threshold” value ([5]; Table 4) is given as 0.01097 ppm. For the same molecule, the “Saturated Odorant Concentration yA” value ([3]; @ 6000 psi, 25° C.) was 999 ppm and the “‘B’ Saturated Odorant Loading” value ([3]; PA^sat/P × 10^6 at 6000 psi) was 999 ppm.

In the case of `CCSC` [methylethylsulfide], the “Olfactory Power (pOl)” value [1] is given as 8.42.

For `c1ccncc1` [pyridine], the “Olfactory Power (p. ol)” value [1] is given as 7.07, the “Odorant Vapor Pressure PA^SAT” value [2] is given as 0.4 psi and the “Odorant Threshold” value ([5]; Table 4) is given as 0.08511 ppm. For the same molecule, the “Saturated Odorant Concentration yA” value [3] was 67 ppm, the “maximum concentration in the vapor/gas phase” value [3] was 67 ppm and the “‘B’ Saturated Odorant Loading” value [3] was 67 ppm.
